Measured values reported in patent US7960556B2, “Thiadiazole derivatives for the treatment of neuro-degenerative diseases” (NV reMYND, priority 2006, dated 2011).

Tested on: α-synuclein cytotoxicity in M17-SYNwt cells
Experiment: α-synuclein cytotoxicity assay: LDH leakage from paraquat-treated M17-SYNwt neuroblastoma cells;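 further: paraquat at 32 mM co-added with compound, 40 h exposure, LDH activity released into the culture medium measured, references are DMSO-only cells and paraquat plus DMSO cells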
Conditions: Homo sapiens, Neuroblastoma cell; for Emax: read-out: % Inhib.

SMILES	EC50 [nM]	Emax [%]
CCCCc1ccc(C(=O)N2CCN(c3nc(Cc4ccc(F)cc4)ns3)CC2C)cc1 (stereo not shown) [compound 120, 1-(4-butylbenzoyl)-4-[3-(4-fluorobenzyl)-1,2,4-thiadiazol-5-yl]-2-methylpiperazine]	98.7	120
Cc1ccccc1C(=O)N1CCN(c2nc(Cc3ccc(F)cc3)ns2)CC1C (stereo not shown) [compound 140, 1-(2-methylbenzoyl)-4-[3-(4-fluorobenzyl)-1,2,4-thiadiazol-5-yl]-2-methylpiperazine]	450	56
Cc1ccc(Cc2nsc(N3CCN(C(=O)c4cccc(F)c4)C(C)C3)n2)cc1 (stereo not shown) [compound 156, 1-(3-fluorobenzoyl)-4-[3-(4-methylbenzyl)-1,2,4-thiadiazol-5-yl]-2-methylpiperazine]	1670	86
Cc1ccc(Cc2nsc(N3CCN(S(=O)(=O)c4ccc(Br)cc4)CC3)n2)cc1 [compound 64, 1-[4-bromophenylsulfonyl]-4-[3-(4-methylbenzyl)-1,2,4-thiadiazol-5-yl]piperazine]	–	58
Cc1ccc(Cc2nsc(N3CCN(S(=O)(=O)c4ccc(C(C)(C)C)cc4)C(C)C3)n2)cc1 (stereo not shown) [compound 42, 1-[4-tert-butylphenylsulfonyl]-4-[3-(4-methylbenzyl)-1,2,4-thiadiazol-5-yl]-2-methylpiperazine]	870	33
O=C(NCCN1CCN(c2nc(Cc3ccc(F)cc3)ns2)CC1)c1ccc(F)cc1 [compound 102, 4-fluoro-N-{2-[4-[3-(4-fluorobenzyl)-1,2,4-thiadiazol-5-yl]piperazin-1-yl]ethyl}benzamide]	1990	80
Cc1ccc(Cc2nsc(N3CCN(C(=O)c4ccccc4F)CC3)n2)cc1 [compound 175, 1-(2-fluorobenzoyl)-4-[3-(4-methylbenzyl)-1,2,4-thiadiazol-5-yl]piperazine]	–	78
CC1CN(c2nc(Cc3ccc(F)cc3)ns2)CCN1C(=O)c1ccc2c(c1)OCO2 (stereo not shown) [compound 178, 1-(1,3-benzodioxol-5-ylcarbonyl)-4-[3-(4-fluorobenzyl)-1,2,4-thiadiazol-5-yl]-2-methylpiperazine]	–	68
O=C(Nc1ccc(F)c(F)c1)N1CCN(c2nc(Cc3ccc(F)cc3)ns2)CC1 [compound 28, N-(3,4-difluorophenyl)-4-[3-(4-fluorobenzyl)-1,2,4-thiadiazol-5-yl]piperazine-1-carboxamide]	–	64
CC1CN(c2nc(Cc3ccccc3)ns2)CCN1C(=O)c1ccc(F)cc1 (stereo not shown) [compound 154, 1-(4-fluorobenzoyl)-4-[3-benzyl-1,2,4-thiadiazol-5-yl]-2-methylpiperazine]	1580	75
CCCCS(=O)(=O)N1CCN(c2nc(Cc3ccc(C)cc3)ns2)CC1 [compound 83, 1-(butylsulfonyl)-4-[3-(4-methylbenzyl)-1,2,4-thiadiazol-5-yl]piperazine]	2640	36
COc1ccc(S(=O)(=O)N2CCN(c3nc(Cc4ccc(C)cc4)ns3)CC2)cc1 [compound 68, 1-[4-methoxyphenylsulfonyl]-4-[3-(4-methylbenzyl)-1,2,4-thiadiazol-5-yl]piperazine]	0.255	53
O=C(Cc1ccc(F)cc1)NCCN1CCN(c2nc(Cc3ccc(F)cc3)ns2)CC1 [compound 107, 2-(4-fluorophenyl)-N-{2-[4-[3-(4-fluorobenzyl)-1,2,4-thiadiazol-5-yl]piperazin-1-yl]ethyl}acetamide]	260	80
Cc1ccc(Cc2nsc(N3CCN(C(=O)c4cccc(F)c4)CC3)n2)cc1 [compound 162, 1-(3-flurorbenzoyl)-4-[3-(4-methylbenzyl)-1,2,4-thiadiazol-5-yl]piperazine]	3400	101
CCCCCCc1ccc(C(=O)N2CCN(c3nc(Cc4ccc(F)cc4)ns3)CC2)cc1 [compound 121, 1-(4-hexylbenzoyl)-4-[3-(4-fluorobenzyl)-1,2,4-thiadiazol-5-yl]piperazine]	120	64
COc1ccc(S(=O)(=O)N2CCN(c3nc(Cc4ccccc4F)ns3)CC2)cc1 [compound 194, 1-[4-methoxyphenylsulfonyl]-4-[3-(2-fluoro-benzyl)-1,2,4-thiadiazol-5-yl]piperazine]	2.7	102
CC1CN(c2nc(Cc3ccc(Cl)cc3)ns2)CCN1C(=O)c1ccccc1F (stereo not shown) [compound 167, 1-(2-fluorobenzoyl)-4-[3-(4-chlorobenzyl)-1,2,4-thiadiazol-5-yl]-2-methylpiperazine]	–	117
CC1CN(c2nc(Cc3ccc(F)cc3)ns2)CCN1C(=O)c1ccc([N+](=O)[O-])cc1 (stereo not shown) [compound 184, 1-(4-nitrobenzoyl)-4-[3-(4-fluorobenzyl)-1,2,4-thiadiazol-5-yl]-2-methylpiperazine]	–	52
CC1CN(c2nc(Cc3ccc(F)cc3)ns2)CCN1C(=O)c1ccc(-c2ccccc2)cc1 (stereo not shown) [compound 129, 1-(1,1′-biphenyl-4-ylcarbonyl)-4-[3-(4-fluorobenzyl)-1,2,4-thiadiazol-5-yl]-2-methylpiperazine]	240	61

SMILES	EC50 [nM]	Emax [%]
COc1cccc(S(=O)(=O)N2CCN(c3nc(Cc4ccc(F)cc4)ns3)CC2)c1 [compound 44, 1-[3-methoxyphenylsulfonyl]-4-[3-(4-fluorobenzyl)-1,2,4-thiadiazol-5-yl]piperazine]	128	99
Fc1ccc(Cc2nsc(N3CCN(c4ccccc4F)CC3)n2)cc1 [compound 187, 1-(2-fluorophenyl)-4-[3-(4-fluorobenzyl)-1,2,4-thiadiazol-5-yl]piperazine]	2810	83
CC1CN(c2nc(Cc3ccc(F)cc3)ns2)CCN1C(=O)c1ccccc1 (stereo not shown) [compound 126, 1-benzoyl-4-[3-(4-fluorobenzyl)-1,2,4-thiadiazol-5-yl]-2-methylpiperazine]	210	63
COc1ccc(S(=O)(=O)N2CCN(c3nc(Cc4cccc(OC)c4)ns3)CC2)cc1 [compound 53, 1-[4-methoxyphenylsulfonyl]-4-[3-(3-methoxybenzyl)-1,2,4-thiadiazol-5-yl]piperazine]	1.4	83
Cc1ccc(C(=O)N2CCN(c3nc(Cc4ccc(F)cc4)ns3)CC2)cc1 [compound 141, 1-(4-methylbenzoyl)-4-[3-(4-fluorobenzyl)-1,2,4-thiadiazol-5-yl]piperazine]	490	75
COc1cccc(Cc2nsc(N3CCN(C(=O)c4ccc(C(C)(C)C)cc4)C(C)C3)n2)c1 (stereo not shown) [compound 146, 1-(4-tert-butylbenzoyl)-4-[3-(3-methoxybenzyl)-1,2,4-thiadiazol-5-yl]-2-methylpiperazine]	720	94
CCc1ccc(C(=O)N2CCN(c3nc(Cc4ccc(F)cc4)ns3)CC2C)cc1 (stereo not shown) [compound 116, 1-(4-ethylbenzoyl)-4-[3-(4-fluorobenzyl)-1,2,4-thiadiazol-5-yl]-2-methylpiperazine]	52.2	71
O=C(c1ccccc1)N1CCN(c2nc(Cc3ccc(F)cc3)ns2)CC1 [compound 181, 1-benzoyl-4-[3-(4-fluorobenzyl)-1,2,4-thiadiazol-5-yl]piperazine]	–	60
Cc1ccc(C(=O)N2CCCN(c3nc(Cc4ccc(F)cc4)ns3)CC2)cc1 [compound 190, 1-(4-methylbenzoyl)-4-[3-(4-fluorobenzyl)-1,2,4-thiadiazol-5-yl]-1,4-diazepane]	2770	87
COc1cccc(Cc2nsc(N3CCN(C(=O)c4ccccc4)C(C)C3)n2)c1 (stereo not shown) [compound 173, 1-benzoyl-4-[3-(3-methoxybenzyl)-1,2,4-thiadiazol-5-yl]-2-methylpiperazine]	–	85
O=C(Cc1ccccc1)N1CCN(c2nc(Cc3ccc(F)cc3)ns2)CC1 [compound 1, 4-phenylacetyl-1-[3-(4-fluorobenzyl)-1,2,4-thiadiazol-5-yl]piperazine]	150	75
O=C(c1cccc(Cl)c1)N1CCN(c2nc(Cc3ccc(F)cc3)ns2)CC1 [compound 138, 1-(3-chlorobenzoyl)-4-[3-(4-fluorobenzyl)-1,2,4-thiadiazol-5-yl]piperazine]	360	81
O=S(=O)(c1ccccc1)N1CCN(c2nc(Cc3ccc(F)cc3)ns2)CC1 [compound 198, 1-phenylsulfonyl-4-[3-(4-fluoro-benzyl)-1,2,4-thiadiazol-5-yl]piperazine]	349	25
Cc1ccc(Cc2nsc(N3CCN(C(=O)Cc4ccc(F)cc4)C(C)C3)n2)cc1 (stereo not shown) [compound 3, 1-(4-fluorophenylacetyl)-4-[3-(4-methylbenzyl)-1,2,4-thiadiazol-5-yl]-2-methylpiperazine]	2200	76
CC1CN(c2nc(Cc3ccc(F)cc3)ns2)CCN1C(=O)c1ccc([N+](=O)[O-])cc1Cl (stereo not shown) [compound 177, 1-(2-chloro-4-nitrobenzoyl)-4-[3-(4-fluorobenzyl)-1,2,4-thiadiazol-5-yl]-2-methylpiperazine]	–	77
CCS(=O)(=O)N1CCN(c2nc(Cc3ccc(Cl)cc3)ns2)CC1 [compound 84, 1-(ethylsulfonyl)-4-[3-(4-chlorobenzyl)-1,2,4-thiadiazol-5-yl]piperazine]	3480	53
Fc1ccc(Cc2nsc(N3CCN(Cc4ccccc4)CC3)n2)cc1 [compound 113, 1-benzyl-4-[3-(4-fluorobenzyl)-1,2,4-thiadiazol-5-yl]piperazine]	1540	65
Cc1ccc(Cc2nsc(N3CCN(S(=O)(=O)c4ccc5ccccc5c4)CC3)n2)cc1 [compound 65, 1-[2-naphtylsulfonyl]-4-[3-(4-methylbenzyl)-1,2,4-thiadiazol-5-yl]piperazine]	39.3	78
Cc1ccc(Cc2nsc(N3CCN(S(=O)(=O)C(C)C)CC3)n2)cc1 [compound 85, 1-(isopropylsulfonyl)-4-[3-(4-methylbenzyl)-1,2,4-thiadiazol-5-yl]piperazine]	3650	69
